Holding throughout (format): in vivo, human
Test [1] is described as follows: Cerebrospinal folate levels in patient with cerebrospinal folate deficiency (case report). Conditions: patient Example 2; folinic acid 5 mg twice per day; within approximately four months; rose from 32 L; preferred range 40-128. The protocol: Example 1 was tested for cerebrospinal folate deficiency approximately four months after Example 2's testing. […] Studies have shown that the earlier the anemias associated with cerebrospinal folate deficiency are addressed, the better the adversely impacted individual can overcome more long-term effects of the associated folate deficiency.
After Example 2's diagnosis, Example 2 was placed on 5-methyltetrahydrofolate in the form of folinic acid (5 mg twice per day).

Test [2] is described as follows: Physical, behavioral and social skills of patient with cerebrospinal folate deficiency (case report). Conditions: patient Example 2; after treatment.
Test [3] can be described thus: Hematological response (reticulocytes) in hypothyroid infant patient (case report). Conditions: patient Example 1; additional nutritional supplement containing 2 mcg of vitamin B12. An excerpt:
Example 1 and Example 2 received different nutritional supplementation with respect to vitamin B12. Although Example 2 did receive the same infant milk formula that Example 1 received, which infant milk formula contained vitamin B12, Example 2 received less of the infant milk formula than Example 1, and Example 2 received in lieu of the infant milk formula more of the breast milk from the hypothyroid […]. Example 1 also received an additional multivitamin nutritional supplement that included 2 mcg of vitamin B12.

Turning to `Nc1nc2c(c(=O)[nH]1)N(C=O)C(CNc1ccc(C(=O)N[C@@H](CCC(=O)O)C(=O)O)cc1)CN2` (stereo partly drawn) [folinic acid, 6(R,S)-5-formyltetrahydrofolate], the cerebrospinal folate levels result in test [1] was “approximately 88”. Besides, in test [2], the “physical, behavioral and social skills” value is listed as “showed improvement”.

As for cobalamin [vitamin B12], the “hematological response: reticulocytes” value in test [3] is listed as “moving from below normal to normal”.

Source of the values: US9248130B2, “Methods and compositions for treating thyroid-related medical conditions with reduced folates” (priority 2009, dated 2016).
